# Data: patent US6905861B2, “D-aminoacylases, method for producing the same, and method for producing D-amino acids using the same” (Daicel Chemical Industries, Ltd., priority 1998, dated 2005)
# How the values were obtained:
# D-aminoacylase = assay: Substrate specificity of purified D-aminoacylase (TNBS method); format: biochemical, Hypomyces mycophilus IFO 6785; conditions: for percentage of the specific activity compared with that for N-acetyl-D-methionine taken as 100%, D-enantiomer: 20 mM substrate, 50 mM Tris-HCl pH 7.5, 30° C., 20 min
# Method: The enzyme activity was assayed by determining the amount of amino acid produced using the TNBS method and the HPLC method. In the TMBS method, 100 mM Na2B4O7 (0.5 ml) was added to a sample solution containing amino acid (0.5 ml), 20 μl of 110 mM TNBS (trinitrobenzenesulfonic acid) was then added, and the resulting mixture was quickly stirred. After 5 min, 100 mM NaH2PO4 containing 1.5 mM Na2SO3 (2 ml) was added to the reaction mixture to terminate the color reaction, and the absorbance at 420 nm was measured. HPLC was performed by subjecting a sample solution containing amino acid to high-performance liquid chromatography using an ODS column (column, Wakosil II 5C18 (4.6 dia.×250 mm) (Wako Pure Chemical); eluent, CH3CN/50 mM KH2PO4. H3PO4 (pH 2.5)=2:8; detection, A280 nm; and flow rate, 1.0 ml/min). The retention times were 3.5 min for D-tryptophan and 9.8 min for N-acetyl-D-tryptophan. Using D-tryptophan as the assay standard, one unit (or U) of the enzyme was defined as the amount of the enzyme required to produce 1 μmol of D-tryptophan at 30° C. for 1 min.
# Substrate specificity of the enzyme was expressed as the percentage of the specific activity compared with that for N-acetyl-D-methionine taken as 100%. N-chloroacetyl-D-phenylalanine, N-acetyl-D-valine, N-acetyl-D-phenylalanine, N-acetyl-D-tryptophan, N-acetyl-D-leucine, N-acetyl-L-valine, N-acetyl-L-phenylalanine, N-acetyl-L-tryptophan, and N-acetyl-L-leucine substrates were used for the comparison. The enzyme reaction was performed in 50 mM Tris-HCl (pH 7.5) containing 1 µl of the enzyme solution and 20 mM of each substrate (total volume 1.0 ml) at 30° C. for 20 min, and terminated by adding 0.5 ml of a TCA reaction terminating solution according to Tsai et al. (consisting of 110 mM trichloroacetic acid, 220 mM sodium acetate, and 330 mM acetic acid). The enzyme activity was assayed by the TNBS method as described in Example 4(2).
# [1] = tested on: D-aminoacylase (crude enzyme) of Menisporopsis novaezelandiae IFO 9179; assay: Crude enzyme activity for each N-Ac-D-amino acid substrate; format: biochemical; conditions: Menisporopsis novaezelandiae IFO 9179 crude enzyme; 20 mM substrate, 1 mM CoCl2, 50 mM phosphate buffer pH 7.0
# Method: (§1) Auricularia auriculajudae IFO 5949, Pythium aphanidermaatum IFO 7030, and Menisporopsis novaezelandiae IFO 9179 were each inoculated into sterilized media (100 ml each) (Czapek Dox Broth for IFO 5949, YM1 medium for IFO 7030, and POTATO DEXTROSE BROTH for IFO 9179) in 500-ml Erlenmeyer flasks. The fungi were cultured on a rotary shaker at 210 rpm at 24° C. for 7 days and collected by centrifugation using a […] centrifuge with a RPR10-2 rotor at 8,000 rpm (12,500×g) for 20 min. […] Disrupted cells thus obtained were centrifuged using a […] centrifuge with a RPR20-2 rotor at 17,500 rpm (38,000×g) for 30 min at 4° C. to obtain the supernatant as the crude enzyme. […] Figures in the table denote the amount (mM) of D-amino acids produced from the corresponding N-acetyl-D-amino acids. The D-aminoacylase activity was detected in all the strains tested, producing D-amino acid from the corresponding N-acetyl-D-amino acid.
# [2] = tested on: D-aminoacylase (crude enzyme) of Auricularia auriculajudae IFO 5949; assay: as above; format: biochemical; conditions: Auricularia auriculajudae IFO 5949 crude enzyme; 20 mM substrate, 1 mM CoCl2, 50 mM phosphate buffer pH 7.0
# Method: as §1
# [3] = tested on: D-aminoacylase (crude enzyme) of Pythium aphanidermaatum IFO 7030; assay: as above; format: biochemical; conditions: Pythium aphanidermaatum IFO 7030 crude enzyme; 20 mM substrate, 1 mM CoCl2, 50 mM phosphate buffer pH 7.0
# Method: as §1
# [4] = tested on: Hypomyces rosellus IFO 6911 strain; assay: D-amino acid production and optical purity from N-acetyl-DL-amino acid by washed fungal cells; format: cell-based; conditions: Hypomyces rosellus IFO 6911 cells; 0.1% substrate, pH 7.5, 30° C., 24 hours
# Method: (§2) A platinum loopful of Hypomyces rosellus IFO 6911 strain, Hypomyces sepulcralis IFO 9102 strain, or Hypomyces mycophilus IFO 6785 strain was inoculated into 25 ml of YM medium (containing 0.3% yeast extract, 0.3% malt extract, 0.5% peptone, and 2.0% glucose; pH 6.0) in a 500-ml shouldered flask. The fungi were shake-cultured at 24° C. for 3 days. After culturing, a 5-ml aliquot of the culture medium was centrifuged in a refrigerated centrifuge to collect the fungal cells. The cells were washed with physiological saline solution (5 ml), and collected by centrifugation again. A reaction solution (containing 0.1% N-acetyl-DL-amino acid shown in Table 2 below in Tris-HCl buffer, pH 7.5) was added to the cells thus collected. The mixture was incubated in a 5-ml test tube with shaking at 30° C. for 24 hours. D-Amino acid thus produced was assayed by high-performance liquid chromatography (column, CROWNPAK CR (Daicel Chemical); column temperature, 26° C.; mobile phase, HClO4 aqueous solution pH 2.0; flow rate, 1 ml/min; and detection, 200 nm) and examined for the optical purity.
# [5] = tested on: Hypomyces sepulcralis IFO 9102 strain; assay: as above; format: cell-based; conditions: Hypomyces sepulcralis IFO 9102 cells; 0.1% substrate, pH 7.5, 30° C., 24 hours
# Method: as §2
# [6] = tested on: Hypomyces mycophilus IFO 6785 strain; assay: as above; format: cell-based; conditions: Hypomyces mycophilus IFO 6785 cells; 0.1% substrate, pH 7.5, 30° C., 24 hours
# Method: as §2
# Fusarium solani IFO 9974 = assay: D-amino acid production from N-acetyl-D-amino acid by washed fungal cells; format: cell-based; conditions: Fusarium solani IFO 9974 cells; 0.1% substrate, Tris-HCl pH 7.5, 30° C., 24 hours
# Method: (§3) A platinum loopful of Hypomyces aurantius IFO 6847 strain, Hypomyces broomeanus IFO 9164 strain, Hypomyces rosellus IFO 6911 strain, Hypomyces chrysospermus IFO 6817 strain, Hypomyces sepulcralis IFO 9102 strain, Hypomyces subiculosus IFO 6892 strain, Hypomyces mycophilus ATCC 76474 or IFO 6785 strain, or Fusarium solani IFO 9974 or IFO 9975 strain was inoculated into 25 ml of YM medium (containing 0.3% yeast extract, 0.3% malt extract, 0.5% peptone, and 2.0% glucose, pH 6.0) in a 500-ml shouldered flask. The fungi were shake-cultured at 24° C. for 3 days. After culturing, a 5-ml aliquot of the culture medium was centrifuged in a refrigerated centrifuge to collect the fungal cells. The cells were washed with physiological saline solution (5 ml) and collected by centrifugation again. A reaction solution (containing 0.1% N-acetyl-D-amino acid shown in Table 1 below in Tris-HCl buffer, pH 7.5) was then added to the cells thus collected. The mixture was incubated in a 5-ml test tube with shaking at 30° C. for 24 hours.
# (§4) D-Amino acid thus produced was determined by high-performance liquid chromatography (column, CROWNPAK CR (Daicel Chemical); column temperature, 26° C.; cooled in ice for only valine; mobile phase, HClO4 aqueous solution, pH 2.0; flow rate, 1 ml/min; and detection, 200 nm).
# [7] = tested on: Hypomyces rosellus IFO 6911 strain; assay: as above; format: cell-based; conditions: Hypomyces rosellus IFO 6911 cells; 0.1% substrate, Tris-HCl pH 7.5, 30° C., 24 hours
# Method: as §3, §4
# [8] = tested on: Hypomyces chrysospermus IFO 6817 strain; assay: as above; format: cell-based; conditions: Hypomyces chrysospermus IFO 6817 cells; 0.1% substrate, Tris-HCl pH 7.5, 30° C., 24 hours
# Method: as §3, §4
# [9] = tested on: Hypomyces mycophilus ATCC 76474; assay: as above; format: cell-based; conditions: Hypomyces mycophilus ATCC 76474 cells; 0.1% substrate, Tris-HCl pH 7.5, 30° C., 24 hours
# Method: as §3, §4
# [10] = tested on: Hypomyces subiculosus IFO 6892 strain; assay: as above; format: cell-based; conditions: Hypomyces subiculosus IFO 6892 cells; 0.1% substrate, Tris-HCl pH 7.5, 30° C., 24 hours
# Method: as §3, §4
# [11] = tested on: Hypomyces aurantius IFO 6847 strain; assay: as above; format: cell-based; conditions: Hypomyces aurantius IFO 6847 cells; 0.1% substrate, Tris-HCl pH 7.5, 30° C., 24 hours
# Method: as §3, §4
# [12] = tested on: Hypomyces broomeanus IFO 9164 strain; assay: as above; format: cell-based; conditions: Hypomyces broomeanus IFO 9164 cells; 0.1% substrate, Tris-HCl pH 7.5, 30° C., 24 hours
# Method: as §3, §4
# [13] = tested on: Hypomyces sepulcralis IFO 9102 strain; assay: as above; format: cell-based; conditions: Hypomyces sepulcralis IFO 9102 cells; 0.1% substrate, Tris-HCl pH 7.5, 30° C., 24 hours
# Method: as §3, §4
# [14] = tested on: Fusarium solani IFO 9975 strain; assay: as above; format: cell-based; conditions: Fusarium solani IFO 9975 cells; 0.1% substrate, Tris-HCl pH 7.5, 30° C., 24 hours
# Method: as §3, §4
# [15] = tested on: Hypomyces mycophilus IFO 6785 strain; assay: as above; format: cell-based; conditions: Hypomyces mycophilus IFO 6785 cells; 0.1% substrate, Tris-HCl pH 7.5, 30° C., 24 hours
# Method: as §3, §4
SMILES,"percentage of the specific activity compared with that for N-acetyl-D-methionine taken as 100%, D-enantiomer (D-aminoacylase)",amount of D-amino acids produced from the corresponding N-acetyl-D-amino acids [1],amount of D-amino acids produced from the corresponding N-acetyl-D-amino acids [2],amount of D-amino acids produced from the corresponding N-acetyl-D-amino acids [3],D-amino acid produced from N-acetyl-DL-amino acid [4],D-amino acid produced from N-acetyl-DL-amino acid [5],D-amino acid produced from N-acetyl-DL-amino acid [6],other results
"CC(=O)N[C@H](C)C(=O)O [N-acetyl-D-alanine, N-Acetyl-D-alanine]",0%,0.09 mM,1.46 mM,0.29 mM,–,–,–,–
CC(=O)NC(Cc1ccccc1)C(=O)O (racemic) [N-acetyl-DL-phenylalanine],–,–,–,–,0.21 mg/mL,0.12 mg/mL,0.16 mg/mL,–
CC(=O)NC(Cc1c[nH]c2ccccc12)C(=O)O (racemic) [N-acetyl-DL-tryptophan],–,–,–,–,0.24 mg/mL,0.13 mg/mL,0.10 mg/mL,–
CSCC[C@@H](NC(C)=O)C(=O)O [N-acetyl-D-methionine],100%,0.89 mM,2.45 mM,0.90 mM,–,–,–,activity of the enzyme for the substrate (in words) (D-aminoacylase; summary of Table 5): very active; D-amino acid produced from N-acetyl-D-amino acid (Fusarium solani IFO 9974): 0.04 mg/mL; D-amino acid produced from N-acetyl-D-amino acid [7]: 0.14 mg/mL; D-amino acid produced from N-acetyl-D-amino acid [8]: 0.12 mg/mL; D-amino acid produced from N-acetyl-D-amino acid [9]: 0.10 mg/mL; D-amino acid produced from N-acetyl-D-amino acid [10]: 0.03 mg/mL; D-amino acid produced from N-acetyl-D-amino acid [11]: 0.02 mg/mL; D-amino acid produced from N-acetyl-D-amino acid [12]: 0.01 mg/mL; D-amino acid produced from N-acetyl-D-amino acid [13]: 0.24 mg/mL; D-amino acid produced from N-acetyl-D-amino acid [14]: 0.02 mg/mL; D-amino acid produced from N-acetyl-D-amino acid [15]: 0.71 mg/mL
